Results on nine compounds are retold here after US20090136468A1, “PERI-OPERATIVE COMPOSITION COMPRISING LACTOBACILLUS RHAMNOSUS” (N.V. NUTRICIA, priority 2004, published 2009).

One experiment deals with L. rhamnosus LMG P-22799. Put plainly: MIC by serial dilution of antibiotics in MRS broth. The experiment is classed as cell-based, Lactobacillus rhamnosus. The note with it: 24 hours at 37° C. How it is done:
(§1) The Minimal inhibitory concentration (MIC) was determined by serial dilution of the tested antibiotics in MRS broth (Oxoid) and inoculate the broth with the probiotic strain to be tested.
(§2) Strains of Lactobacilli were cultured for 24 hours in MRS-broth at 37° C. and under aerobic conditions. A dilution series of the 24 hours-culture in MRS-broth was prepared (dilution factor 10, from 10^−1 to 1^−10). The dilution series were cultured overnight (i.e. 16 h) at 37° C. under aerobic conditions. The highest dilution in which still growth was observed was selected to inoculate a 96-wells plate. The culture was centrifuge for 10 min at 3800 rpm and 4° C. and resuspended in the same volume of PBS (4° C.). The Lactobacilli were counted under a microscope and the solution was diluted in cold PBS to obtain a concentration of 1*10^8 cells/ml.
(§3) Wells of a 96-wells plate were filled with MRS broth and with antibiotics in varying dilution to a total volume of 95 μl. As a control, no antibiotics were added. The following final dilutions of antibiotics were tested:
(§4) bacitracin, colistin, nystatin, polymixin B, vancomycin: 1000, 500, 250, 125, 62.5 ug/ml erythromycin, kanamycin, neomycm: 100, 50, 25, 12.5, 6.25 ug/ml ampicillin, chloramphenicol, lincomycin, penicillin, streptomycin, tetracyclin: 10, 5, 2.5, 1.25, 0.625 ug/ml
(§5) The plates were incubated for 24 hours at 37° C. in a SpectaMAX plate reader (shaking every 10 minutes for 20 seconds) and the optical density was determined at 600 nm.

Experiment [1] has as its system L. rhamnosus GG (ATCC 53103). Kind of experiment: MIC by serial dilution of antibiotics in MRS broth. The experiment is classed as cell-based, Lactobacillus rhamnosus. The note with it: 24 hours at 37° C. The method, then: as §1, §2, §3, §4, §5
For experiment [2], the system named is 131 strains of Lactobacillus rhamnosus. Kind of experiment: Broth micro dilution test, MIC distribution. The experiment is classed as cell-based. Conditions: 131 L. rhamnosus strains, LSM broth, 37° C. How it is done: (§6) The inocula of 131 strains of Lactobacillus rhamnosus species are prepared by suspending several freshly cultivated single colonies in a tube with 5 ml of saline up to an optical density of McFarland standard No. 0.5. The corresponding colonies are picked up from MRS (de Man, Rogosa, Sharpe) agar plates on which the strains grew for 48 h at 37° C. and at 5% CO2 atmosphere. Subsequently, this suspension is diluted 1:10 by transferring 4 ml of the McFarland No. 0.5 suspension into a suitable inoculum container with 36 ml of saline and subsequent careful mixing. The MIC microtiter test plates (95 wels with different concentrations of the test antibiotics and one wel for the growth control without any antibiotic) were prepared before. Nutrient medium: LSM (lactobacilli susceptibility test medium) broth consisting of 90% Iso-sensitest broth plus 10% MRS broth (pH 6.7). The inoculations of the pre-made MIC test plates are performed by a multipoint inoculator (final inoculum of these LAB in the microtiter plate: about 10^5 bacteria ml^−1). The plates are subsequently incubated in ambient air or in a 5% CO2 atmosphere at 37° C. for 24 (−48) h. Then the MICs are read as the lowest concentration in the increasing concentration row of the corresponding antibiotic in which no growth of the test organism was observed. The control attempt (without antibiotic) of the corresponding strain tested has to show sufficient growth.

The next experiment has as its system Lb. rhamnosus GG. Kind of experiment: Broth micro dilution test, MIC. The experiment is classed as cell-based, Lactobacillus rhamnosus. Conditions: Lacticaseibacillus rhamnosus, unit from Table 6, read-out: MIC against Lb. rhamnosus GG. The method, then:
as §6
(§7) In a large study comprising 131 different Lb. rhamosus strains the sensitivity for antibiotics was tested. In table 6 the number of strains falling within a certain dilution factor are shown. Clearly there are large differences in antibiotic sensitivity within the Lb. rhamnosus group. The more sensitive to these antibiotics, the better and together with the other parameters, such as the inhibition of adhesion of pathogens to intestinal epithelial cells is used to select the most appropriate Lb. rhamnosus. […]

Experiment [3] relates to our preferred Lb. rhamnosus (LMG P-22799). Put plainly: Broth micro dilution test, MIC. The experiment is classed as cell-based, Lactobacillus rhamnosus. The method, then:
as §6, §7

With `[H]/N=C(/N)N[C@H]1[C@H](O)[C@@H](O)[C@H](O[C@@H]2O[C@@H](C)[C@](O)(C=O)[C@H]2O[C@@H]2O[C@@H](CO)[C@H](O)[C@@H](O)[C@@H]2NC)[C@@H](N/C(N)=N\[H])[C@@H]1O` [Streptomycin, streptomycin], the “Antibiotic sensitivity (expressed as MIC) of L. rhamnosus LMG P-22799” value with L. rhamnosus LMG P-22799 worked out at 5 µg/mL. Besides, in experiment [1], the “Antibiotic sensitivity (expressed as MIC) of L. rhamnosus GG (ATTC 53103)” value (from here on “Antibiotic sensitivity … (ATTC 53103)”) was more than 10 µg/mL.
In the same order, the values of `CCC[C@@H]1C[C@@H](C(=O)N[C@@H]([C@H]2O[C@H](SC)[C@H](O)[C@@H](O)[C@H]2O)[C@@H](C)O)N(C)C1` [Lincomycin, lincomycin] are 5 µg/mL and 10 µg/mL.
On the same counts, the results for `CN(C)[C@@H]1C(=O)C(C(N)=O)=C(O)[C@@]2(O)C(=O)C3=C(O)c4c(O)cccc4[C@@](C)(O)[C@H]3C[C@@H]12` [Tetracyclin, tetracyclin] are 2.5 µg/mL and 10 µg/mL.
With `CC[C@H]1OC(=O)[C@H](C)[C@@H](O[C@H]2C[C@@](C)(OC)[C@@H](O)[C@H](C)O2)[C@H](C)[C@@H](O[C@@H]2O[C@H](C)C[C@H](N(C)C)[C@H]2O)[C@](C)(O)C[C@@H](C)C(=O)[C@H](C)[C@@H](O)[C@]1(C)O` [Erythromycin, erythromycin], the “Antibiotic sensitivity (expressed as MIC) of L. rhamnosus LMG P-22799” value with L. rhamnosus LMG P-22799 was 50 µg/mL. For the same compound, the “Antibiotic sensitivity … (ATTC 53103)” value in experiment [1] was more than 100 µg/mL.
Take `O=C(N[C@H](CO)[C@H](O)c1ccc([N+](=O)[O-])cc1)C(Cl)Cl` [CMP]: in experiment [2], the “Number of strains with a MIC of 0.5 μg/ml” value (“Number … of 0.5 μg/ml” for short) is 1, the “Number of strains with a MIC of 1.0 μg/ml” value (from here on “Number … of 1.0 μg/ml”) worked out at 10, the “Number of strains with a MIC of 2.0 μg/ml” value (from here on “Number … of 2.0 μg/ml”) turned out to be 88 and the “Number of strains with a MIC of 4.0 μg/ml” value (“Number … of 4.0 μg/ml” for short) is reported as 31. Besides, in experiment [2], the “Number of strains with a MIC of 8.0 μg/ml” value worked out at 1.
Turning to `O=C(N[C@H](CO)[C@H](O)c1ccc([N+](=O)[O-])cc1)C(Cl)Cl` [Chloramphenicol, chloramphenicol], the “Antibiotic sensitivity (expressed as MIC) of L. rhamnosus LMG P-22799” value with L. rhamnosus LMG P-22799 turned out to be 5 µg/mL. Further, the “Antibiotic sensitivity … (ATTC 53103)” value in experiment [1] was more than 10 µg/mL.
Consider penicillin, for which, in experiment [2], the “Number of strains with a MIC of 0.125 μg/ml” value is 9, the “Number of strains with a MIC of 0.25 μg/ml” value was determined as 76, the “Number … of 0.5 μg/ml” value was 28 and the “Number … of 1.0 μg/ml” value was found to be 11. Besides, in experiment [2], the “Number … of 2.0 μg/ml” value was found to be 7.
As to `[H]/N=C(/N)N[C@H]1[C@H](O)[C@@H](O)[C@H](O[C@@H]2O[C@@H](C)[C@](O)(C=O)[C@H]2O[C@@H]2O[C@@H](CO)[C@H](O)[C@@H](O)[C@@H]2NC)[C@@H](N/C(N)=N\[H])[C@@H]1O` [STR], in experiment [2], the “Number … of 2.0 μg/ml” value is listed as 37, the “Number … of 4.0 μg/ml” value is recorded as 52 and the “Number of strains with a MIC of 8.0 μg/ml” value amounted to 21.
On to `CC1(C)S[C@@H]2[C@H](NC(=O)[C@H](N)c3ccccc3)C(=O)N2[C@H]1C(=O)O` [Ampicillin, ampicillin], for which, in experiment [2], the “Number of strains with a MIC of 0.25 μg/ml” value is recorded as 3, the “Number … of 0.5 μg/ml” value was 52, the “Number … of 1.0 μg/ml” value is reported as 62 and the “Number … of 2.0 μg/ml” value was found to be 12. Further, the “Number … of 4.0 μg/ml” value in experiment [2] is on record as 2. Further, the “Antibiotic sensitivity (expressed as MIC) of L. rhamnosus LMG P-22799” value in the experiment with L. rhamnosus LMG P-22799 stood at 2.5 µg/mL. In addition, in experiment [1], the “Antibiotic sensitivity … (ATTC 53103)” value was more than 10 µg/mL. Moreover, the MIC (commonly the lowest concentration that inhibits growth of the organism) in the experiment on Lb. rhamnosus GG was not below 1 µg/mL. Also, the “AMP sensitivity ratio LGG/LMG P-22799” value in experiment [3] is 2-4. For the same compound, the MIC in experiment [3] (Lacticaseibacillus rhamnosus, unit from Table 6, read-out: MIC against our preferred Lb. rhamnosus) was not above 0.5 µg/mL.
